Assay results reported in US9624182B2, “Compounds as lysophosphatidic acid receptor antagonists” (Amira Pharmaceuticals, Inc., priority 2009, dated 2017).

What follows are compounds tested against T1, human LPA1 (Homo sapiens, UniProt Q92633) (assay: LPA1 calcium flux assay). Conditions: CHO cells expressing human LPA1, stimulated with 10 nM LPA; read-out: HLPA1 Ca Flux IC50.
T1 construct: the full-length cDNA for human LPA1 was obtained by PCR of the reverse transcription reaction; expressed in transfected cells
Type: cell-based
How it was run: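 Antagonism measured as block of 10 nM LPA-evoked calcium rise in stable human LPA1-CHO cells. After overnight serum-free culture and 1 h dye loading at 37 °C (buffer with 0.3% fatty-acid-free albumin), compound was added for 30 min at room temperature. Titration curves gave IC50.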

T1 sequence (Q92633 whole entry): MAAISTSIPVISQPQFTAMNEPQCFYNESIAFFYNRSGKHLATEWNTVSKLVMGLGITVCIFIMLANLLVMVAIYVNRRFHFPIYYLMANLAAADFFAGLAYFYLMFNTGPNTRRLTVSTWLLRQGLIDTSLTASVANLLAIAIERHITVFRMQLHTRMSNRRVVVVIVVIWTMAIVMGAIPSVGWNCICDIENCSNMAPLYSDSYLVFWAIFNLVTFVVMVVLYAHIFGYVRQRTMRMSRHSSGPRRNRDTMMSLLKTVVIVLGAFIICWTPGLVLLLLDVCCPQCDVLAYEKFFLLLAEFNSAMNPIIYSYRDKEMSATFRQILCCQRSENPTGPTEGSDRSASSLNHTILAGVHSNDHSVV

SMILES	IC50 [µM]
Cc1noc(-c2ccc(-c3ccc(CCC(=O)O)cc3)cc2)c1NC(C)CCc1cccc(C(F)(F)F)c1 (single isomer, unassigned) [Compound 1-234, 3-(4′-{3-Methyl-4-[1-methyl-3-(3-trifluoromethyl-phenyl)-propylamino]-isoxazol-5-yl}-biphenyl-4-yl)-propionic acid]	> 50
Cc1noc(-c2ccc(-c3ccc(C4(C(=O)O)CC4)cc3)cc2)c1NC(=O)C(C)Oc1ccccc1 (stereo not drawn) [Compound 1-17, 1-{4′-[3-Methyl-4-(2-phenoxy-propionylamino)-isoxazol-5-yl]-biphenyl-4-yl}-cyclopropanecarboxylic acid]	1 to 50
Cc1noc(-c2ccc(-c3ccc([C@H]4C[C@H]4C(=O)O)cc3)cc2)c1CSCCc1ccccc1 (single isomer, unassigned) [Compound 1-150, (cis)-2-[4′-(3-Methyl-4-phenethylsulfanylmethyl-isoxazol-5-yl)-biphenyl-4-yl]-cyclopropanecarboxylic acid]	1 to 50
Cc1noc(-c2ccc(-c3ccc(C4(C(=O)O)CC4)cc3)cc2)c1NC(=O)NCc1ccccc1F [Compound 1-12, 1-(4′-{4-[3-(2-Fluoro-benzyl)-ureido]-3-methyl-isoxazol-5-yl}-biphenyl-4-yl)-cyclopropanecarboxylic acid]	< 0.3
Cc1noc(-c2ccc(-c3ccc(C4(C(=O)O)CC4)cc3)cc2)c1CNS(=O)(=O)Cc1ccccc1Cl [Compound 1-61, 1-(4′-{4-[(2-Chloro-phenylmethanesulfonylamino)-methyl]-3-methyl-isoxazol-5-yl}-biphenyl-4-yl)-cyclopropanecarboxylic acid]	1 to 50
Cc1noc(-c2ccc(-c3ccc(C4(C(=O)O)CC4)cc3)cc2)c1CN(C)C(=O)C(C)Oc1ccccc1 (stereo not drawn) [Compound 1-72, 1-[4′-(3-Methyl-4-{[methyl-(2-phenoxy-propionyl)-amino]-methyl}-isoxazol-5-yl)-biphenyl-4-yl]-cyclopropanecarboxylic acid]	< 0.3

Other lines, results leading:

IC50 [µM]	SMILES
0.3 to 1	Cc1noc(-c2ccc(-c3ccc(C4(C(=O)O)CC4)cc3)cc2)c1/C=C/CCc1ccccc1 [Compound 1-95, 1-{4′-[3-Methyl-4-((E)-4-phenyl-but-1-enyl)-isoxazol-5-yl]-biphenyl-4-yl}-cyclopropanecarboxylic acid]
1 to 50	Cc1noc(-c2ccc(-c3ccc(C4(C(=O)O)CC4)cc3)cc2)c1COCc1ccccc1 [Compound 1-45, 1-[4′-(4-Benzyloxymethyl-3-methyl-isoxazol-5-yl)-biphenyl-4-yl]-cyclopropanecarboxylic acid]
< 0.3	Cc1noc(-c2ccc(-c3ccc(C4(CC(=O)O)CC4)cc3)cc2)c1C(O)CCCc1ccccc1 (single isomer, unassigned) [Compound 1-176, (1-{4′-[4-(1-Hydroxy-4-phenyl-butyl)-3-methyl-isoxazol-5-yl]-biphenyl-4-yl}-cyclopropyl)-acetic acid]
< 0.3	Cc1noc(-c2ccc(-c3ccc(C4(C(=O)O)CC4)cc3)cc2)c1/C=C/CN(Cc1ccccc1)S(C)(=O)=O [Compound 1-139, 1-(4′-{4-[3-(Benzyl-methanesulfonyl-amino)-propenyl]-3-methyl-isoxazol-5-yl}-biphenyl-4-yl)-cyclopropanecarboxylic acid]
1 to 50	Cc1noc(-c2ccc(-c3ccc(C4(C(=O)O)CC4)cc3)cc2)c1C(CCCc1ccccc1)NS(C)(=O)=O (stereo not drawn) [Compound 1-257, 1-{4′-[4-(1-Methanesulfonylamino-4-phenyl-butyl)-3-methyl-isoxazol-5-yl]-biphenyl-4-yl}-cyclopropanecarboxylic acid]
< 0.3	Cc1noc(-c2ccc(-c3ccc(C4(C(=O)O)CC4)cc3)cc2)c1COC(=O)NCc1ccccc1 [Compound 1-21, 1-[4′-(4-Benzylcarbamoyloxymethyl-3-methyl-isoxazol-5-yl)-biphenyl-4-yl]-cyclopropanecarboxylic acid]
